{
  "source": "patent US20070149408A1",
  "about": "“METHOD FOR REDUCING NITROSAMINES IN TOBACCO” (UNIVERSITY OF KENTUCKY RESEARCH FOUNDATION, priority 2005, published 2007)",
  "key": {"whole tobacco leaf [1]": {"tested_on": "whole tobacco leaf", "experiment": "Total TSNA in cured tobacco, ferulic acid, ethanol and surfactant sprayed two days before harvest (Example 4)", "settings": "ferulic acid + ethanol + DE FAC 820, versus untreated (Table 4)", "protocol": "Tobacco plants were treated by spraying them in the field with an aqueous solution comprising 0.25% wt. by vol. of ferulic acid, 5 gallons ethanol (95%), 250 gallons water and 0.25% by vol. of a non-ionic surfactant (DE FAC 820). This gave a 2% ethanol solution. Fifty (50) gallons of aqueous solution was applied per acre for the treated plants.\nTreated and non-treated tobacco was harvested and cured in a conventional dark fire tobacco barn with manual vents for aeration for 6 weeks, one week of natural ventilation followed by five weeks of wood fire curing in a conventional manner. The curing was conducted in a conventional curing barn as is typically found in the dark tobacco production regions of Kentucky and Tennessee. Both the treated and untreated tobacco were the same variety and harvested at the same time.\nRandom leaves were removed from the cured treated and cured untreated tobacco and TSNA was measured in accordance with Example 1."}, "whole tobacco leaf [2]": {"tested_on": "whole tobacco leaf", "experiment": "TSNA in cured tobacco, ferulic acid added to the smoke during fire curing (Example 6)", "settings": "ferulic acid in wood smoke, versus untreated (Table 6)", "source_text": "In a conventional dark fire tobacco barn, wood lumber was laid on the floor of the barn and sawdust was spread on top of the wood. The lumber was set on fire and the sawdust smoldered and generated wood smoke. Ferulic acid, solid granular, from a conventional source, was sprinkled over the top of the sawdust at the start of the fire curing process and was applied in an amount of one pound per acre of tobacco in the barn, about 5000 tobacco plants. The fire curing started one or two days after the tobacco was harvested and hung in the barn. The ferulic acid lasted about one week on the sawdust during the fire curing.\nThe fire curing was conducted for a total of 40 days.\nAfter curing, random leaves were collected from the treated tobacco and from the untreated tobacco. Both treated and untreated tobacco were of the same variety and came from two different barns. The untreated tobacco came from a different barn but was fire cured in the same manner as the treated tobacco except for the ferulic acid treatment."}},
  "data": [
    {"smiles": "COc1cc(C=CC(=O)O)ccc1O", "note": "[ferulic acid, 4-hydroxy-3-methoxy cinnamic acid]", "values": [
      {"measurement": "reduction in TSNA", "setting": "whole tobacco leaf [1]", "value": 85, "unit": "%"},
      {"measurement": "reduction in TSNA", "setting": "whole tobacco leaf [2]", "value": 35, "unit": "%"}
    ]}
  ]
}
